{"source": "patent US20060206946A1", "about": "“Method of disrupting heme transport in nematodes and of modelling and evaluating eukaryotic heme transport” (priority 2005, published 2006)", "key": {"C. elegans [1]": {"tested_on": "C. elegans", "type": "in vivo, Caenorhabditis elegans", "conditions": "in vivo", "protocol": "(C) Fluorescent metabolic labeling of worms with either 40 μM hemin (images 1, 4) or 40 μM ZnMP/4 μM hemin (images 2, 3, 5, 6) for 3 h followed by confocal microscopy with a 546 laser (images 1-3) and DIC optics (images 4-6). Arrowheads indicate ZnMP fluorescence accumulation within intestinal cells and developing embryos. For clarity, the boxed image in 2 is magnified in images 3 and 6. (Bar=100 μm).\n(D) Worms were incubated with 40 μM ZnMP/4 μM hemin for 16 h followed by a chase with 40 μM hemin. Worms were analyzed by epifluorescence microscopy (TRITC channel) and DIC optics. Experiments were performed either in the absence (images 1-4) or presence (images 5-8) of NaN3 during the chase periods to test for the non-specific loss of ZnMP fluorescence. Photomicrograph 4 is shown at a lower power to depict the complete loss of ZnMP fluorescence. (Bar=100 μm). For (C) and (D), four separate experiments were performed with a minimum of 50 worms per data point per experiment. The data are representative for >90% of worms analyzed.\nBecause of the nature of the growth curve, we reasoned that heme homeostatis in C. elegans may be regulated in accordance with organismic needs and metabolic demands. […]\nPulse-Chase Analysis. […] At timed intervals, aliquots of worms were removed into the appropriate medium containing 10 mM NaN3 mounted on a slide and immediately analyzed with a 543 He/Ne laser on a Zeiss 410 confocal microscope, or with a Peltier-cooled Retiga 1300 12-bit CCD camera fitted on to a Leica DMIRE2 autofluorescence/DIC microscope. Images were further analyzed with SIMPLEPCI v5.2 Software (Compix, Inc.). […] No loss of fluorescence was observed when labeling experiments were performed in parallel in the presence of 1 mM NaN3 during the chase period and when worms were incubated in medium without hemin. To account for background autouluorescence in C. elegans, the sensor gain of the CCD camera or the laser was set to subtract any fluorescence obtained from control worms incubated in the presence of 40 μM hemin."}, "C. elegans [2]": {"tested_on": "C. elegans", "test": "Metabolic labeling with 59Fe or 59Fe-heme, heme isolation and TLC", "type": "in vivo, Caenorhabditis elegans", "conditions": "for radiolabel signal in heme extracted from labeled worms: 9.4×10^6 DPM, mCeHR", "protocol": "(E) Metabolic labeling in C. elegans cultured in the presence of heme. Synchronized L1 larvae were grown in mCeHR medium containing either ^59Fe or ^59Fe-heme (9.4×10^6 DPM) and the worms harvested as gravid adults. Heme was extracted and concentrated, and then resolved by TLC followed by detection with a PhosphorImager (top panel). Lane 5, ^59Fe-heme control. Radiolabeled bands were quantified in a gamma counter and CPM normalized to total protein (bottom panel). To correct for non-specific binding of the radiolabeled Fe and heme, parallel experiments were conducted in the presence of 1 mM sodium azide (samples 1 and 3).\nPreparation of hemin, hemin analogs and [^59Fe]Heme. Fresh stock solutions of hemin or hemin analogs (Frontier Sciences, Logan, Utah) were prepared immediately prior to use by dissolving required amounts in 0.3 M ammonium hydroxide. The pH of the stock solution was adjusted to pH 8.0 with 6 N HCl, and filter sterilized ([…]). The upper limit of free iron was estimated to be 3.8 nM/1 μM of hemin chloride by inductively coupled plasma-mass spectrometry (ICP-MS) analysis. For synthesis of ^59Fe-heme, 50 ml of glacial acetic acid was stirred under a constant flow of N2 at 60° C. followed by addition of 12 mg of protoporphyrin IX in pyridine for 30 min. To this mixture, 0.85 μCi of FeCl3 (specific activity 35.77 mCi/mg, Perkin Elmer, Boston, Mass.) was stirred in for an additional 3 h. Heme was extracted from this mixture with ethyl acetate followed by extensive washes with 4 N HCl and distilled water to remove unincorporated protoporphyrin IX and iron. The heme thus obtained was concentrated by evaporation of the ethyl acetate using a RotaVapor and frozen at −20° C. until further use. Total amount of ^59Fe-heme synthesized by this method was measured using a Packard Gamma Counter (˜21% efficiency). The purity of heme was determined by thin layer chromatography using silica gel 60 matrix in an NH4OH-saturated chamber with 2,6-lutidine/water solvent. We estimated the specific activity of ^59Fe-heme synthesized to be ˜2.8×10^6 DPM/nmol.\nMetabolic Labeling, Heme Isolation and Thin Layer Chromatography. Equal numbers of L1 worms were grown at 20° C. in mCeHR medium with 20 μM hemin and supplemented with 9.4×10^6 DPM of either ^59Fe-heme or ^59FeCl3. Radiolabeled adult worms were harvested by first incubating them in M9 buffer for 30 min to empty the gut contents. […] It was experimentally determined that this concentration of NaN3 was not lethal to worms. […] Plates were exposed to a PhosphorImager and the radiolabel signal corresponding to heme was excised and analyzed using a gamma counter. Counts (DPM) obtained were normalized for protein as determined by the bicinchoninic acid method (Sigma) performed on pre-aliquoted samples of intact worms. […]"}, "[3]": {"tested_on": "C. elegans wild-type N2 strain", "test": "Worm culture and growth assay in axenic CeHR/mCeHR liquid medium", "type": "in vivo", "conditions": "for support of worm growth as heme source: in vivo", "protocol": "(D) Biphasic response of C. elegans cultured in the presence of increasing amounts of hemin chloride (μM). Equal numbers of synchronized L1 larvae were grown in 24-well plates in mCeHR medium for 9 days and quantified (worms/μl) by microscopy. Each data point represents the mean±SD from three separate experiments performed in triplicate.\n(A) Aerobic growth of C. elegans in mCeFIR medium with 20 μM hemin supplemented with either gallium protoporphyrin IX (GaPP) or gallium salts. Synchronized L1 larvae were grown for 9 days in 24-well plates and quantified (worms/μl) by microscopy. Each data point represents the mean from a single experiment, and each experiment was performed in triplicate. Inset depicts the GaPP analysis at lower concentrations for clarity.\n(B) Effect of heme on the cytotoxicity of GaPP. Synchronized L1 larvae were inoculated in 24-well plates containing mCeHR medium with either 0, 2, 4, or 6 μM GaPP and increasing hemin (μM). The number of worms per μl was measured on day 9 and the data are presented as mean±SD.\nFIG. 9 depicts worm utilization of heme-iron under iron deprivation. Equal numbers of synchronized L1 larvae were grown in the presence of 4, 20, and 100 μM hemin, either in basal mCeHR medium (set 1), or basal medium lacking exogenous iron (set 2), or as set 2 with 1 μM of the iron chelator ferrozine (set 3), or as set 3 with 486 μM ferrous ammonium sulfate (set 4). These values of ferrozine and iron were empirically determined by performing dose-response experiments and analyzing worm growth. The number of worms per μl was measured on day 9 and the data presented as mean±SD performed in triplicate. P<0.001 between sets 1 and 3.\nTo qualitatively and quantitatively determine the heme requirement of C. elegans, we assessed growth at various heme concentrations. Equal numbers of L1 larvae were inoculated in CeHR medium with either no cytochrome c and hemin, or with cytochrome c and increasing amounts of hemin (FIG. 4A). The effect of hemin became apparent within 48 hours and by 9 days, the heme-deplete worms were severely growth retarded at the L1/L2 stages. […] However, this stimulatory effect of heme was toxic to worms grown at heme concentrations >750 μM. To quantitatively assess the effect of heme on worms, we counted the number of live worms grown under different concentration of heme using DIC microscopy. […] On the basis of this association between heme and the growth and reproduction of C. elegans, we conclude that the biphasic nature of heme is likely due to the need for heme under heme-deprived conditions to perform essential metabolic functions, and the lethality of heme at high concentrations can be attributed to its cytotoxic activity.\nWorm Culture and Growth Assays. Free-living worms were cultured in CeHR axenic liquid medium (Dr. Eric Clegg, Personal Communication). […] CeHR medium was modified (henceforth called mCeHR) to eliminate all sources of exogenously added heme; basal growth medium comprised 20 μM hemin chloride (Frontier Scientific, Logan, Utah) and 150 μM of ferrous ammonium sulfate (Sigma Chemicals). Worm strains were grown in mCeHR medium under aerobic conditions in tissue culture flasks at 20° C. ˜3.7×10^6 worms were routinely obtained after 3.5 to 4 days in a T75 flask with 30 ml basal medium from an initial inoculum of −1.5×10^5 worms. For initial culturing of worms in axenic media, three generations of worms were sequentially bleached (1.1% bleach/0.55 M NaOH) to eliminate any contaminating bacterial carryover from agar plates. In all dose-response experiments, worms were growth synchronized by treating the gravid hermaphrodite worms with bleach to dissolve adult worms. The eggs, resistant to bleach, were liberated from the carcasses and extensively washed with M9 buffer followed by overnight hatching in M9 buffer to synchronize growth. By harvesting at appropriate time intervals, synchronous larval stages and adult staged worms were collected for experimental manipulations. […]"}}}
{"compound": "CCC1=C(C)c2cc3[n-]c(cc4[n-]c(cc5nc(cc1n2)C(C)=C5CC)c(C)c4CCC(=O)O)c(CCC(=O)O)c3C.[Zn+2]", "note": "[ZnMP, zinc mesoporphyrin IX]", "values": [{"measurement": "time to discernable fluorescence signal in embryos", "setting": "C. elegans [1]", "value": "≤ 130", "unit": "min"}]}
{"compound": "[Cl][59Fe]([Cl])[Cl]", "note": "[^59Fe]", "values": [{"measurement": "radiolabel signal in heme extracted from labeled worms", "setting": "C. elegans [2]", "value": "no radiolabeled signal"}]}
{"compound": "Cytochrome c: hemoprotein used as heme source for worm growth", "values": [{"measurement": "support of worm growth as heme source", "setting": "[3]", "value": "sustained worm growth"}]}
{"compound": "O=S(=O)([O-])c1ccc(-c2nnc(-c3ccccn3)nc2-c2ccc(S(=O)(=O)[O-])cc2)cc1.[Na+].[Na+]", "note": "[ferrozine]", "values": [{"measurement": "effect on diminution in worm growth under iron deprivation", "setting": "[3]; 1 μM ferrozine, medium lacking exogenous iron", "value": "further accentuated"}]}
{"compound": "[N-]=[N+]=[N-]", "note": "[NaN3, sodium azide]", "values": [{"measurement": "lethality to worms", "setting": "C. elegans [2]; 1 mM NaN3", "value": "not lethal"}]}
{"compound": "C=CC1=C(C)c2cc3[n-]c(cc4nc(cc5[n-]c(cc1n2)c(C)c5C=C)C(C)=C4CCC(=O)O)c(CCC(=O)O)c3C.[59Fe+2]", "note": "[^59Fe-heme]", "values": [{"measurement": "radiolabel signal in heme extracted from labeled worms", "setting": "C. elegans [2]", "value": "specific signal"}, {"measurement": "59Fe-heme uptake in metabolically inhibited worms", "setting": "C. elegans [2]; in the presence of NaN3", "value": "negligible"}]}
{"compound": "hemoglobin: hemoprotein used as heme source for worm growth", "values": [{"measurement": "support of worm growth as heme source", "setting": "[3]", "value": "sustained worm growth"}]}
